16 molecules from US20180312511A1, “SHORT-ACTING BENZODIAZEPINE DERIVATIVES, PREPARATION METHOD THEREFOR, AND USE THEREOF” (SICHUAN KELUN-BIOTECH BIOPHARMACEUTICAL CO., LTD., priority 2015, published 2018) can be followed below.

One test concerns Rhesus monkeys. Put plainly: Anesthetic effects in monkeys (loss of consciousness). The test is classed as in vivo. As to conditions: intravenous single bolus. The source says:
(§1) In anesthetic activity tests, latency generally refers to the period between the start of administration of a drug to a subject and the moment that the subject becomes unconscious. A short latency is desirable, since it represents fast onset of the drug.
(§2) The duration of anesthesia generally refers to the period between the moment that a subject becomes unconscious and the moment that the subject regains consciousness. The durations will be different for different animal models or animal species. An over-long duration of anesthesia may result in adverse suppressive effects on the cardiovascular and respiratory systems, such as side effects on the nervous system, including drowsiness, dizziness, etc.; at the same time, an over-short duration of anesthesia may affect the anesthetic effect, causing dose increase of anesthetic during surgery and other issues.
Rhesus monkeys (male, 5-6 kg) were randomly divided into several groups. After administering the drugs intravenously in a single bolus, the latency to and the duration of loss of consciousness were recorded.

The test system of another test is Kunming mice. Put plainly: Drug-induced loss of righting reflex in mice. The test is classed as in vivo. As to conditions: 60 mg/kg, single bolus via tail vein.
Excerpt: as §1, §2
Kunming mice (male, 18-25 g) were randomly divided into several groups. After administering the drugs in a single bolus via the tail vein, the latency to loss of righting reflex and the duration of loss of righting reflex were recorded.

The test system of test [1] is GABA Cl− current, HEK293T cells. The experiment in a line: Cellular GABA activation current via whole-cell patch clamp. It is filed as cell-based. To be noted: Homo sapiens, HEK-293T, with 1 μM GABA, holding potential −60 mV; for Emax at 30 µM: concentration 30 μM; for EC50: read-out: EC50 (concentration at half of Emax); for Emax at 10 µM: concentration 10 μM. How it is done:
Test compounds were dissolved in external solution (NaCl 140 mM, KCl 4.7 mM, HEPES 10 mM. CaCl2 2 mM, glucose 11 mM, and MgCl2 1 mM, pH 7.4) at various concentrations. HEK293T cells were plated on glass cover slips, and incubated in DMEM medium at 37° C. and 5% CO2 for 24 h.
An HEKA EPC 10 USB patch clamp amplifier was used in the whole-cell recording of GABA Cl^− current. 1 μM GABA was used to excite Cl^− current. Cells were voltage clamped at a holding potential of −60 mV, and treated with the test compounds of different concentrations together with 1 μM of GABA. The Cl^− current induction effect of the test compounds on the same cell, the maximum percentage of current potentiation (Emax), and the concentration of test compounds at half of Emax (EC50) were recorded.
(Patch clamp records ionic current or voltage across a cell membrane.)

Setting [2] is: read-out: Emax (maximum percentage of current potentiation).

For orientation: Emax means the size of the effect at its maximum, as opposed to the concentration needed. Turning to `COC(=O)CC[C@@H]1N=C(c2ccccn2)c2cc(Br)ccc2-n2ccnc21` [Example 2, (S)-methyl 3-(8-bromo-6-(pyridin-2-yl)-4H-benzo[f]imidazo[1,2-a][1,4]diazepin-4-yl)propanoate], in the test on Rhesus monkeys (6 mg/kg), the “Duration of loss of consciousness” value came out at 18.10 min and the “Latency to loss of consciousness” value is on record as 3.92 min. Also, the “Duration of loss of consciousness” value in the test on Rhesus monkeys (8 mg/kg) turned out to be 55.90 min. Besides, the “Latency to loss of righting reflex” value with Kunming mice amounted to 0.13 min. Further, the Emax at 30 µM in test [1] (setting [2]) came to 358%.

For `COC(=O)CC[C@@H]1N=C(c2ccccc2)c2cc(Cl)ccc2-n2cnnc21` [Example 3, (S)-methyl 3-(8-chloro-6-phenyl-4H-benzo[f][1,2,4]triazolo[4,3-a][1,4]diazepin-4-yl)propanoate], the “Duration of loss of righting reflex” value in the test on Kunming mice amounted to 11.76 min. The Emax at 30 µM in test [1] (setting [2]) turned out to be 325%. The EC50 in test [1] amounted to 950 nM.

In the case of `COC(=O)CC[C@@H]1N=C(c2ccccn2)c2cc(Br)ccc2-n2c(C)nnc21` [Example 4, (S)-methyl 3-(8-bromo-1-methyl-6-(pyridin-2-yl)-4H-benzo[f][1,2,4]triazolo[4,3-a][1,4]diazepin-4-yl)propanoate], the “Duration of loss of consciousness” value in the test on Rhesus monkeys (8 mg/kg) is given as 45.00 min. Besides, the “Duration of loss of righting reflex” value in the test on Kunming mice is on record as 19.14 min. Further, the Emax at 30 µM in test [1] (setting [2]) was determined as 472%. In addition, the EC50 in test [1] is 980 nM.

On to `COC(=O)CC[C@@H]1N=C(c2ccccn2)c2cc(Br)ccc2-n2c(C3CC3)cnc21` [Example 5, (S)-methyl 3-(8-bromo-1-cyclopropyl-6-(pyridin-2-yl)-4H-benzo[f]imidazo[1,2-a][1,4]diazepin-4-yl)propanoate], for which, in the test on Kunming mice, the “Duration of loss of righting reflex” value stood at 23.33 min. In addition, the Emax at 10 µM in test [1] (setting [2]) was found to be 160%. Also, the EC50 in test [1] was 360 nM.

`[2H]Cc1cnc2n1-c1ccc(Br)cc1C(c1ccccn1)=N[C@H]2CCC(=O)OC` [Example 6, (S)-methyl 3-(8-bromo-1-deuteromethyl-6-(pyridin-2-yl)-4H-benzo[f]imidazo[1,2-a][1,4]diazepin-4-yl)propanoate]: in the test on Kunming mice, the “Duration of loss of righting reflex” value came to 23.95 min and the “Latency to loss of righting reflex” value is listed as 0.17 min.

Consider `COC(=O)CC[C@@H]1N=C(c2ccccn2)c2cc(Br)ccc2-n2cnnc21` [Example 9, (S)-methyl 3-(8-bromo-6-(pyridin-2-yl)-4H-benzo[f][1,2,4]triazolo[4,3-a][1,4]diazepin-4-yl)propanoate], for which the “Duration of loss of consciousness” value in the test on Rhesus monkeys (8 mg/kg) is listed as 36.47 min. The “Duration of loss of righting reflex” value in the test with Kunming mice is recorded as 12.88 min. Also, in test [1] (setting [2]), the Emax at 10 µM is 408%. Also, the EC50 in test [1] was 720 nM.

As for `COCc1cnc2n1-c1ccc(Br)cc1C(c1ccccn1)=N[C@H]2CCC(=O)OC` [Example 10, (S)-methyl 3-(8-bromo-1-(methoxymethyl)-6-(pyridin-2-yl)-4H-benzo[f]imidazo[1,2-a][1,4]diazepin-4-yl)propanoate], in the test with Rhesus monkeys (6 mg/kg), the “Duration of loss of consciousness” value came out at 26.00 min and the “Latency to loss of consciousness” value was 4.00 min. Besides, the “Duration of loss of consciousness” value in the test with Rhesus monkeys (8 mg/kg) is recorded as 26.00 min. Also, in the test on Kunming mice, the “Duration of loss of righting reflex” value was determined as 17.27 min. The Emax at 3 µM in test [1] (concentration 3 μM, read-out: Emax (maximum percentage of current potentiation)) turned out to be 197%. Further, the EC50 in test [1] amounted to 470 nM.

With `[2H]Cc1nnc2n1-c1ccc(Br)cc1C(c1ccccn1)=N[C@H]2CCC(=O)OC` [Example 11, (S)-methyl 3-(8-bromo-1-deuteromethyl-6-(pyridin-2-yl)-4H-benzo[f][1,2,4]triazolo[4,3-a][1,4]diazepin-4-yl)propanoate], the “Duration of loss of righting reflex” value in the test with Kunming mice is reported as 12.82 min. For the same molecule, the Emax at 30 µM in test [1] (setting [2]) amounted to 319%. For the same molecule, in test [1], the EC50 was 400 nM.

In the case of `CCc1cnc2n1-c1ccc(Br)cc1C(c1ccccn1)=N[C@H]2CCC(=O)OC` [Example 15, (S)-methyl 3-(8-bromo-1-ethyl-6-(pyridin-2-yl)-4H-benzo[f]imidazo[1,2-a][1,4]diazepin-4-yl)propanoate], the “Duration of loss of consciousness” value in the test on Rhesus monkeys (4 mg/kg) turned out to be 37.50 min; with Rhesus monkeys (6 mg/kg), 49.00 min. Besides, the “Latency to loss of consciousness” value in the test with Rhesus monkeys (4 mg/kg) turned out to be 3.75 min; in the test with Rhesus monkeys (6 mg/kg), 2.75 min. For the same molecule, the “Latency to loss of righting reflex” value in the test with Kunming mice came to 0.24 min.

As to `COC(=O)CC[C@@H]1N=C(c2ccccc2F)c2cc(Cl)ccc2-n2cnnc21` [Example 17, (S)-methyl 3-(8-chloro-6-(2-fluorophenyl)-4H-benzo[f][1,2,4]triazolo[4,3-a][1,4]diazepin-4-yl)propanoate], in the test on Rhesus monkeys (8 mg/kg), the “Duration of loss of consciousness” value is given as 52.50 min. The “Duration of loss of righting reflex” value in the test on Kunming mice is recorded as 18.51 min.

On to `COC(=O)CC[C@@H]1N=C(c2ccccc2F)c2cc(Cl)ccc2-n2c(C3CC3)nnc21` [Example 18, (S)-methyl 3-(8-chloro-1-cyclopropyl-6-(2-fluorophenyl)-4H-benzo[f][1,2,4]triazolo[4,3-a][1,4]diazepin-4-yl)propanoate], for which, in the test with Rhesus monkeys (1 mg/kg), the “Duration of loss of consciousness” value is recorded as 41.15 min and the “Latency to loss of consciousness” value came to 3.30 min. For the same molecule, the “Latency to loss of consciousness” value with Rhesus monkeys (4 mg/kg) is 5.10 min. Besides, in the test with Rhesus monkeys (6 mg/kg), the “Latency to loss of consciousness” value came out at 5.09 min. In the test with Kunming mice, the “Duration of loss of righting reflex” value is 25.61 min and the “Latency to loss of righting reflex” value was 0.19 min. Further, the Emax at 10 µM in test [1] (setting [2]) worked out at 347%. In test [1], the EC50 was determined as 470 nM.

`COC(=O)CC[C@@H]1N=C(c2ccccn2)c2cc(Cl)ccc2-n2c(C3CC3)cnc21` [Example 21, (S)-methyl 3-(8-chloro-1-cyclopropyl-6-(pyridin-2-yl)-4H-benzo[f]imidazo[1,2-a][1,4]diazepin-4-yl)propanoate]: the “Duration of loss of righting reflex” value in the test on Kunming mice turned out to be 23.23 min.

`COC(=O)CC[C@@H]1N=C(c2ccccn2)c2cc(Cl)ccc2-n2c(C3CCC3)cnc21` [Example 29, (S)-methyl 3-(8-chloro-1-cyclobutyl-6-(pyridin-2-yl)-4H-benzo[f]imidazo[1,2-a][1,4]diazepin-4-yl)propanoate]: in the test on Kunming mice, the “Duration of loss of righting reflex” value came to 19.09 min and the “Latency to loss of righting reflex” value is reported as 0.21 min.

On to `CCc1nnc2n1-c1ccc(Cl)cc1C(c1ccccn1)=N[C@H]2CCC(=O)OC` [Example 30, (S)-methyl 3-(8-chloro-1-ethyl-6-(pyridin-2-yl)-4H-benzo[f][1,2,4]triazolo[4,3-a][1,4]diazepin-4-yl)propanoate], for which, in the test with Kunming mice, the “Duration of loss of righting reflex” value is given as 17.74 min and the “Latency to loss of righting reflex” value was found to be 0.20 min.

With `COC(=O)CC[C@@H]1N=C(c2ccccn2)c2cc(Cl)ccc2-n2c(C(C)C)nnc21` [Example 31, (S)-methyl 3-(8-chloro-1-isopropyl-6-(pyridin-2-yl)-4H-benzo[f][1,2,4]triazolo[4,3-a][1,4]diazepin-4-yl)propanoate], in the test on Kunming mice, the “Duration of loss of righting reflex” value is reported as 17.82 min and the “Latency to loss of righting reflex” value turned out to be 0.16 min.

With `COC(=O)CC[C@@H]1N=C(c2ccccn2)c2cc(Br)ccc2-n2c(C)cnc21` [Remimazolam, reference compound], the “Latency to loss of consciousness” value is 5.34 min in the test on Rhesus monkeys (4 mg/kg) and 5.50 min in the test with Rhesus monkeys (6 mg/kg). Besides, the “Latency to loss of righting reflex” value in the test on Kunming mice is recorded as 0.28 min.
